This note sets out measurements from US20250327028A1, “ENGINEERED PLATELETS AS TARGETED PROTEIN DEGRADERS” (Wisconsin Alumni Research Foundation, priority 2024, published 2025).

The test system of one test is WT MDA-MB-231 cells. Briefly: In-gel fluorescence detection of NA-647 internalization in WT MDA-MB-231 cells. The class given is cell-based, human. As for the experimental part:
In-gel fluorescence detection: In-gel fluorescence was mainly used to investigate the internalization of NeutrAvidin™_647 in HAC-B-treated cancer cells.
Sample preparation: 4T1 or WT MDA-MB-231 cells were seeded in 6-well culture plates with a density of 5×10^4 cells in each well and cultured for 24 h. If HAI pretreatment was performed, the cells were incubated in the HAI-containing blank medium at different concentrations for 2 h and washed with PBS twice before the following treatments. Then, the cells were treated with free HAC-B or the combinations of various ligands at the indicated concentrations for the predetermined time points. Next, the drug-containing medium was removed, and PBS was used to wash the cells twice, followed by incubating the cells in the blank medium containing NeutrAvidin™ DyLight™ 650 (NA-647, Invitrogen/84607) at 0.5 μM for 1 h. Finally, the cells were washed with PBS and lysed on ice with the RIPA buffer containing PMSF (1 mM) and the phosphatase inhibitor cocktail for 30 min. A s for the 4T1 cells cotreated with NA-647 and HAC-B, the cells after 24-h incubation were treated with the blank medium containing NA-647 at 0.5 μM and HAC-B at various concentrations for 2 h before cell lysis.
In-gel fluorescence imaging: After 30-min lysis, the lysates were centrifuged at 10,000 g for 10 minutes at 4° C., and the corresponding supernatants were collected, followed by quantification of the total proteins in the supernatant through the BCA assay. Afterward, the proteins in the supernatant were mixed with ¼ volume of 5× sample buffer formulated by Tris-HCl (pH 6.8, 312.5 mM), sucrose (25%), SDS (10%), bromophenol blue (0.025%), and dithiothreitol (DTT, 250 mM). After incubation for 1 h at room temperature, equal amounts of proteins from different samples ([…] per lane) were loaded into the 12% Bis-Tris gel. After the proteins were separated, the gels were subjected to fluorescence imaging with the ChemiDoc™ MP imaging system (Bio-Rad).

The target of another test is T1, BRD4 (Homo sapiens, UniProt O60885).
T1 construct: endogenous in cells; host or cells: WT MDA-MB-231 (ATCC)
Briefly: Immunoblot analysis of BRD4 degradation in HSP90α-KO MDA-MB-231 cells. The class given is cell-based. Conditions: 24 h. An excerpt:
(§1) Immunoblot analysis: Immunoblot analysis was used to evaluate the expression of BRD4, HSP90, HSP90a, and PD-L1 in 4T1, WT MDA-MB-231, HSP90α-KO MDA-MB-231 or PEA-10 cells after various treatments and also served as the detection method for IP or co-IP experiments. The procedures for preparing IP or co-IP samples were indicated in the relevant experimental parts.
(§2) Sample preparation for various cancer cells after free HAC treatment: Various cells, including 4T1, WT MDA-MB-231, HSP90α-KO MDA-MB-231, or PEA-10 cells, were seeded in 6-well culture plates with a density of 5×10^4 cells in each well and cultured for 24 h. Then, if HAI pretreatment was performed, the cells were incubated in the HAI-containing blank medium at different concentrations for 2 h and washed with PBS twice before the following treatments. […]
(§3) General procedures for immunoblot analysis: After a 30-min lysis, the lysates were centrifuged at 10,000 g for 10 minutes at 4° C., and the corresponding supernatants were collected, followed by quantification of the total proteins in the supernatant through the BCA assay. […] Finally, the bands were treated with electrochemiluminescence (ECL) western blot substrate, detected by the iBright™ imaging system and quantified with ImageJ software. […]
A general note: Immunoblotting shows a protein as a band on a membrane.

A further test relates to HSP90. Description: HSP90 expression in cancer cells after iHAC treatment. The class given is cell-based. Conditions: all the cancer cells, various concentrations.
Excerpt: as §1, §2, §3

Structures are written as SMILES.

Regarding `N#CCN(C(=O)CCCC[C@@H]1SC[C@@H]2NC(=O)N[C@@H]21)S(=O)(=O)c1ccc(C(=O)NCCCn2c(Sc3cc4c(cc3I)OCO4)nc3c(N)ncnc32)cc1` [HAC-B, N-(3-(6-amino-8-((6-iodobenzo[d][1,3]dioxol-5-yl)thio)-9H-purin-9-yl)propyl)-4-(N-(cyanomethyl)-N-(5-((3aS,4S,6aR)-2-oxohexahydro-1H-thieno[3,4-d]imidazol-4-yl)pentanoyl)sulfamoyl)benzamide], in the test on WT MDA-MB-231 cells (HAC-B pretreatment 5 μM, 4 h), the “internalization of NA-647 after optimized pretreatment” value is listed as “substantially internalize NA-647”. In addition, the “internalization of extracellular NA-647” value with WT MDA-MB-231 cells (WT MDA-MB-231 cells, HAC-B pretreatment, then NA-647 0.5 μM 1 h) is “enhance the internalization of extracellular NA-647 in a time and concentration-dependent manner”.

Take `Cc1sc2c(c1C)C(c1ccc(Cl)cc1)=N[C@@H](CC(=O)NCc1cn(CCCC(=O)N(CC#N)S(=O)(=O)c3ccc(C(=O)NCCCn4c(Sc5cc6c(cc5I)OCO6)nc5c(N)ncnc54)cc3)nn1)c1nnc(C)n1-2` [iHAC, (S)—N-(3-(6-amino-8-((6-iodobenzo[d][1,3]dioxol-5-yl)thio)-9H-purin-9-yl)propyl)-4-(N-(4-(4-((2-(4-(4-chlorophenyl)-2,3,9-trimethyl-6H-thieno[3,2-f][1,2,4]triazolo[4,3-a][1,4]diazepin-6-yl)acetamido)methyl)-1H-1,2,3-triazol-1-yl)butanoyl)-N-(cyanomethyl)sulfamoyl)benzamide]: the “remaining BRD4 degradation potency” value at BRD4 is “partially maintains the degradation potency”. The “effect of HSP90α deficiency on BRD4 degradation efficacy” value on BRD4 (lower and higher concentration ranges) was “substantially compromised the BRD4 degradation efficacy”. Moreover, the HSP90 expression entry in the test on HSP90 is on record as “maintained a relatively stable HSP90 expression”.
